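Test compounds were applied to cells in 96-well plates for 48 hours at 5 doses. At the GI50, growth is halved. TGI denotes the concentration required for complete inhibition of growth.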
Experiments:
Test in all cases: NCI tumour cell line growth inhibition, 48 h
[1] = tested on: SF-268 CNS
[2] = tested on: T-47D breast
[3] = tested on: RPMI-8226 leukemia
[4] = tested on: MDA-MB-231 breast
[5] = tested on: MDA-MB-435
[6] = tested on: MALME-3M melanoma
[7] = tested on: HCT-15 colon
[8] = tested on: OVCAR-4 ovarian
[9] = tested on: HS 578T breast
[10] = tested on: CCRF-CEM leukemia
[11] = tested on: SF-539 CNS
[12] = tested on: SK-MEL-5 melanoma
[13] = tested on: DU-145 prostate
[14] = tested on: SNB-19 CNS
[15] = tested on: NCI-H460 lung
[16] = tested on: IGROV1 ovarian
[17] = tested on: UACC-257 melanoma
[18] = tested on: OVCAR-8 ovarian
[19] = tested on: CAKI-1 renal
[20] = tested on: SN12C renal
[21] = tested on: UO-31 renal
[22] = tested on: NCI-H226 lung
[23] = tested on: KM12 colon
[24] = tested on: SNB-75 CNS
[25] = tested on: RXF 393 renal
[26] = tested on: SK-MEL-28 melanoma
[27] = tested on: NCI/ADR-RES ovarian
[28] = tested on: COLO 205 colon
[29] = tested on: HL-60(TB) leukemia
[30] = tested on: HCC-2998 colon
[31] = tested on: LOX IMVI melanoma
[32] = tested on: K-562 leukemia
[33] = tested on: ACHN renal
[34] = tested on: NCI-H23 lung
[35] = tested on: A498 renal
[36] = tested on: M14 melanoma
[37] = tested on: HCT-116 colon
[38] = tested on: UACC-62 melanoma
[39] = tested on: SW-620 colon
[40] = tested on: U251 CNS
[41] = tested on: OVCAR-3 ovarian
[42] = tested on: BT-549 breast
[43] = tested on: HOP-92 NSCLC
[44] = tested on: NCI-H522 lung
[45] = tested on: SK-MEL-2 melanoma
[46] = tested on: SK-OV-3 ovarian
[47] = tested on: TK-10 renal
[48] = tested on: PC-3 prostate
[49] = tested on: 786-0 renal
[50] = tested on: HOP-62 NSCLC
[51] = tested on: EKVX NSCLC
[52] = tested on: A549 NSCLC
[53] = tested on: SF-295 CNS
[54] = tested on: OVCAR-5 ovarian
[55] = tested on: MOLT-4 leukemia
[56] = tested on: MCF7 breast

Q: For O=C(c1ccco1)c1c(C(F)(F)F)n([O-])c2ccc(F)cc2[n+]1=O, which GI50 [1] is on record?
A: 1.24 µM

Q: What about the TGI [1] of the same compound?
A: 2.85 µM

Q: And the GI50 [2]?
A: 0.54 µM

Q: And the TGI [2]?
A: 3.21 µM

Q: And the GI50 [3]?
A: 0.18 µM

Q: What about the TGI [3] of the same compound?
A: 0.573 µM

Q: And the GI50 [4]?
A: 1.61 µM

Q: And the TGI [4]?
A: 3.44 µM

Q: What about the GI50 [5] of the same compound?
A: 1.3 µM

Q: And the TGI [5]?
A: 2.75 µM

Q: And the GI50 [6]?
A: 1.09 µM

Q: What about the TGI [6] of the same compound?
A: 3.21 µM

Q: And the GI50 [7]?
A: 0.219 µM

Q: What about the TGI [7] of the same compound?
A: 0.855 µM

Q: And the GI50 [8]?
A: 1.35 µM

Q: And the TGI [8]?
A: 2.64 µM

Q: And the GI50 [9]?
A: 1.84 µM

Q: What about the TGI [9] of the same compound?
A: 7.08 µM

Q: What about the GI50 [10] of the same compound?
A: 0.4 µM

Q: What about the TGI [10] of the same compound?
A: 2.97 µM

Q: And the GI50 [11]?
A: 2.55 µM

Q: And the TGI [11]?
A: 8.32 µM

Q: And the GI50 [12]?
A: 1.84 µM

Q: And the TGI [12]?
A: 5.88 µM

Q: And the GI50 [13]?
A: 2.24 µM

Q: What about the TGI [13] of the same compound?
A: 7.04 µM

Q: And the GI50 [14]?
A: 1.06 µM

Q: And the TGI [14]?
A: 2.41 µM

Q: And the GI50 [15]?
A: 0.926 µM

Q: And the TGI [15]?
A: 11.7 µM

Q: What about the GI50 [16] of the same compound?
A: 1.23 µM

Q: And the TGI [16]?
A: 2.78 µM

Q: What about the GI50 [17] of the same compound?
A: 1.47 µM

Q: And the TGI [17]?
A: 2.81 µM

Q: And the GI50 [18]?
A: 0.558 µM

Q: What about the TGI [18] of the same compound?
A: 1.17 µM

Q: And the GI50 [19]?
A: 1.6 µM

Q: What about the TGI [19] of the same compound?
A: 3.26 µM

Q: What about the GI50 [20] of the same compound?
A: 1.33 µM

Q: And the TGI [20]?
A: 3.38 µM

Q: And the GI50 [21]?
A: 1.6 µM

Q: And the TGI [21]?
A: 3 µM

Q: What about the GI50 [22] of the same compound?
A: 5.38 µM

Q: What about the TGI [22] of the same compound?
A: 22.1 µM

Q: What about the GI50 [23] of the same compound?
A: 0.213 µM

Q: And the TGI [23]?
A: 0.568 µM

Q: And the GI50 [24]?
A: 1.59 µM

Q: What about the TGI [24] of the same compound?
A: 7.91 µM

Q: And the GI50 [25]?
A: 0.759 µM

Q: And the TGI [25]?
A: 2.14 µM

Q: What about the GI50 [26] of the same compound?
A: 1.46 µM

Q: What about the TGI [26] of the same compound?
A: 2.79 µM

Q: And the GI50 [27]?
A: 2.19 µM

Q: What about the TGI [27] of the same compound?
A: 5.59 µM

Q: And the GI50 [28]?
A: 0.524 µM

Q: And the TGI [28]?
A: 1.36 µM

Q: What about the GI50 [29] of the same compound?
A: 0.186 µM

Q: And the TGI [29]?
A: 0.452 µM

Q: And the GI50 [30]?
A: 0.775 µM

Q: And the TGI [30]?
A: 2.02 µM

Q: What about the GI50 [31] of the same compound?
A: 0.785 µM

Q: What about the TGI [31] of the same compound?
A: 2.24 µM

Q: What about the GI50 [32] of the same compound?
A: 0.065 µM

Q: What about the TGI [32] of the same compound?
A: 0.219 µM

Q: And the GI50 [33]?
A: 1.33 µM

Q: And the TGI [33]?
A: 2.62 µM

Q: And the GI50 [34]?
A: 1.02 µM

Q: What about the TGI [34] of the same compound?
A: 2.49 µM

Q: And the GI50 [35]?
A: 8.53 µM

Q: And the TGI [35]?
A: 24.3 µM

Q: What about the GI50 [36] of the same compound?
A: 1.48 µM

Q: And the TGI [36]?
A: 2.93 µM

Q: And the GI50 [37]?
A: 0.824 µM

Q: And the TGI [37]?
A: 2.41 µM

Q: And the GI50 [38]?
A: 1.21 µM

Q: And the TGI [38]?
A: 2.55 µM

Q: What about the GI50 [39] of the same compound?
A: 0.316 µM

Q: What about the TGI [39] of the same compound?
A: 1.16 µM

Q: What about the GI50 [40] of the same compound?
A: 1.33 µM

Q: What about the TGI [40] of the same compound?
A: 2.6 µM

Q: What about the GI50 [41] of the same compound?
A: 0.757 µM

Q: What about the TGI [41] of the same compound?
A: 2.24 µM

Q: And the GI50 [42]?
A: 0.996 µM

Q: And the TGI [42]?
A: 2.98 µM

Q: What about the GI50 [43] of the same compound?
A: 0.802 µM

Q: What about the TGI [43] of the same compound?
A: 2.55 µM

Q: What about the GI50 [44] of the same compound?
A: 1.7 µM

Q: What about the TGI [44] of the same compound?
A: 3.44 µM

Q: And the GI50 [45]?
A: 0.91 µM

Q: And the TGI [45]?
A: 2.47 µM

Q: What about the GI50 [46] of the same compound?
A: 6.02 µM

Q: And the TGI [46]?
A: 18.6 µM

Q: What about the GI50 [47] of the same compound?
A: 1.42 µM

Q: What about the TGI [47] of the same compound?
A: 3.36 µM

Q: And the GI50 [48]?
A: 1.01 µM

Q: What about the TGI [48] of the same compound?
A: 2.47 µM

Q: And the GI50 [49]?
A: 1.27 µM

Q: And the TGI [49]?
A: 3.94 µM

Q: What about the GI50 [50] of the same compound?
A: 3 µM

Q: What about the TGI [50] of the same compound?
A: 13.7 µM

Q: What about the GI50 [51] of the same compound?
A: 2.95 µM

Q: What about the TGI [51] of the same compound?
A: 8.09 µM

Q: What about the GI50 [52] of the same compound?
A: 3.08 µM

Q: And the TGI [52]?
A: 9.87 µM

Q: And the GI50 [53]?
A: 4.69 µM

Q: What about the TGI [53] of the same compound?
A: 17.9 µM

Q: And the GI50 [54]?
A: 5.97 µM

Q: And the TGI [54]?
A: 17.5 µM

Q: What about the GI50 [55] of the same compound?
A: 0.219 µM

Q: And the TGI [55]?
A: 0.54 µM

Q: And the GI50 [56]?
A: 0.258 µM

Q: And the TGI [56]?
A: 1.89 µM
